In patent US20190002988A1, “METHOD OF USING A RET FUSION GENE AS A BIOMARKER TO SELECT NON SMALL CELL LUNG CANCER (NSCLC) AND THYROID CANCER PATIENTS FOR A CANCER TREATMENT” (Boehringer Ingelheim International GmbH, priority 2015, published 2019):

Key:
[1] = test system: EGFR and ALK wild-type advanced NSCLC with CCDC6-RET fusion gene; assay: Phase I case study, docetaxel plus nintedanib in a patient with CCDC6-RET fusion NSCLC; assay type: in vivo, human; conditions: one patient
Source text: The present study is a case study of long-term efficacy of docetaxel plus nintedanib (BIBF 1120; 3-Z-[1-(4-(N-((4-methyl-piperazin-1-yl)-methylcarbonyl)-N-methyl-amino)-anilino)-1-phenyl-methylene]-6-methoxycarbonyl-2-indolinone) over 33 months in a never smoking person with EGFR and ALK wild-type non-small cell lung cancer NSCLC.
The present case was a never smoking person with EGFR and ALK wild-type advanced NSCLC. After failure of first-line platinum-based chemotherapy, the patient was enrolled in a phase I dose-escalation study of nintedanib combined with docetaxel for Japanese patients with advanced NSCLC on June, 2010, with oral administration of nintedanib 150 mg twice daily plus docetaxel 75 mg/m^2 every 3 weeks (Okamoto I, Kaneda H, Satoh T et al. Phase I safety, pharmacokinetic, and biomarker study of BIBF 1120, an oral triple tyrosine kinase inhibitor in patients with advanced solid tumors. Mol Cancer Ther 2010; 9: 2825-2833.). […] A total of 48 treatment cycles (26 cycles of therapy with nintedanib alone) had been administered over 33 months until disease progression on March, 2013 (FIG. 1). To identify mutations which are highly susceptible to therapy with nintedanib, next-generation sequencing panels were applied that cover both mutational hotspots in 22 genes related to lung and colon tumorigenesis using DNA (FIG. 4) as well as 72 major variants of ALK, RET, ROS1, and NTRK1 fusion transcripts using RNA extracted from non-small lung tissues obtained by transbronchial biopsy (FIG. 5). Multiplex genetic testing has identified CCDC6-RET fusion gene in tissue specimens for lung cancer diagnosis (FIG. 2), and no other actionable mutations were identified.

[2] = test system: vascular endothelial growth factor receptors (VEGFRs); assay: preclinical studies, inhibition of VEGFRs; assay type: biochemical
[3] = preclinical studies, oral bioavailability; assay type: in vivo
VEGFR2 = VEGFR2 (Homo sapiens, UniProt P35968); conditions: in vitro; Hilberg et al. 2008; cited from earlier work
advanced NSCLC = conditions: combination with docetaxel; predefined patients with adenocarcinoma tumor histology; Reck et al. 2014; cited from earlier work
[4] = test system: platelet-derived growth factor receptors (PDGFRs); assay: preclinical studies, inhibition of PDGFRs; assay type: biochemical
[5] = test system: endothelial- and smooth muscle cells and pericytes; assay: signalling in endothelial- and smooth muscle cells and pericytes; assay type: cell-based
tumor vessel density = assay: tumor vessel density; conditions: in vivo
[6] = test system: fibroblast growth factor receptors (FGFRs); assay: preclinical studies, inhibition of FGFRs; assay type: biochemical
[7] = test system: xenograft models of human solid tumors; conditions: Hilberg et al. 2008; cited from earlier work

Sequence of VEGFR2 (P35968 20-1356, species assumed): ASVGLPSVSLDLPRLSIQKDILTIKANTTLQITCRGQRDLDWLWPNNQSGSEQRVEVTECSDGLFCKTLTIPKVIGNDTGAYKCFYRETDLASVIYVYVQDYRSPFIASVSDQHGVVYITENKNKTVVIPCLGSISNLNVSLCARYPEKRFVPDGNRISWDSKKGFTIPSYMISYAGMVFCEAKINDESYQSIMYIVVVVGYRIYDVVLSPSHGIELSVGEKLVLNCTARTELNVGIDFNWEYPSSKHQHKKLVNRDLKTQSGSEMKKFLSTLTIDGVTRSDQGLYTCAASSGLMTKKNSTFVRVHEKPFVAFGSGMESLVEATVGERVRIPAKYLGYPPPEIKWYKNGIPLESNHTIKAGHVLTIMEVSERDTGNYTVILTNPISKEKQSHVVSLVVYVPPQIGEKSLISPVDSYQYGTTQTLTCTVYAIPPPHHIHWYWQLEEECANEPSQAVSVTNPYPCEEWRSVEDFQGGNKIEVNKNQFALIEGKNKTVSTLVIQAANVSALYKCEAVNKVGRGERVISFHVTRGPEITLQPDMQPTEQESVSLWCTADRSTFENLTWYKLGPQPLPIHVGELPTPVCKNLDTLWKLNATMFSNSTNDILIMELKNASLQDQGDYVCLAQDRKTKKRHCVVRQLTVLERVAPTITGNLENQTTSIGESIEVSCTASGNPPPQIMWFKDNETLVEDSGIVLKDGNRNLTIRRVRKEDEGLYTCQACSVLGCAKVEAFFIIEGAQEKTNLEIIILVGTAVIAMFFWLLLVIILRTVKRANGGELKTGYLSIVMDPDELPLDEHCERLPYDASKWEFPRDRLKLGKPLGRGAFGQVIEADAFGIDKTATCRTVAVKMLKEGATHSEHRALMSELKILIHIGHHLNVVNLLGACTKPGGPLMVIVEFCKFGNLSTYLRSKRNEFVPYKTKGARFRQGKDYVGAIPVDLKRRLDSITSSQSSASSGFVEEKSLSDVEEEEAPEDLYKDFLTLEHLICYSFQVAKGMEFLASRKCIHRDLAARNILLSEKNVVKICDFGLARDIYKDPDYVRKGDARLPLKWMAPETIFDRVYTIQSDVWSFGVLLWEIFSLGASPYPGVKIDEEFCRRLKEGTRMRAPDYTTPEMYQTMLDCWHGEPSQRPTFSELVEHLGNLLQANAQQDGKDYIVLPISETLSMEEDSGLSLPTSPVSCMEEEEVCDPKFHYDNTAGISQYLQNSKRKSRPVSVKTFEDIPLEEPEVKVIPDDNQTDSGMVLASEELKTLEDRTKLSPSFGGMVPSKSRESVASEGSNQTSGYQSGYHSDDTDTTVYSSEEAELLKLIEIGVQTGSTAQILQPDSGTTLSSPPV

Row | Compound | adverse events leading to discontinuation ([1]; docetaxel discontinued after 22 cycles) | inhibition of VEGFRs [2] | oral bioavailability [3] | blockade of VEGFR2 (VEGFR2) | overall survival compared with docetaxel alone (advanced NSCLC) | inhibition of PDGFRs [4] | signalling in endothelial- and smooth muscle cells and pericytes [5] | tumor vessel density (tumor vessel density) | treatment time until disease progression ([1]; 48 treatment cycles, 26 of them nintedanib alone after docetaxel was stopped) | response ([1]; nintedanib 150 mg twice daily plus docetaxel 75 mg/m^2 every 3 weeks) | inhibition of FGFRs [6] | tumor growth [7]
1 | CC(=O)O[C@@]12CO[C@@H]1C[C@H](O)[C@@]1(C)C(=O)[C@H](O)C3=C(C)[C@@H](OC(=O)[C@H](O)[C@@H](NC(=O)OC(C)(C)C)c4ccccc4)C[C@@](O)([C@@H](OC(=O)c4ccccc4)[C@H]21)C3(C)C [docetaxel, reference compound] | lower extremity edema and fatigue |  |  |  |  |  |  |  |  |  |  | 
2 | COC(=O)c1ccc2c(c1)NC(=O)/C2=C(\Nc1ccc(N(C)C(=O)CN2CCN(C)CC2)cc1)c1ccccc1 [nintedanib, 3-Z-[1-(4-(N-((4-methyl-piperazin-1-yl)-methylcarbonyl)-N-methyl-amino)-anilino)-1-phenyl-methylene]-6-methoxycarbonyl-2-indolinone] |  | highly potent | orally bioavailable | sustained blockade | significantly and clinically meaningful improved overall survival | highly potent | inhibits signalling | reduces tumor vessel density | 33 months | radiographic response | highly potent | delay or arrest of tumor growth
